Earlier results as cited in patent EP2517696A1, “Extended release memantine tablet” (Ali Raif Ilaç Sanayi ve Ticaret Anonim Sirketi, priority 2011, dated 2012).
Where a name gives a salt, the structure may show the parent alone.

Key:
[1] = in vivo
[2] = high dissolution and permeability

- absolute bioavailability [1]: 100%
- BCS class [2]: BCS 1 class
Compound: CC12CC3CC(C)(C1)CC(N)(C3)C2 [Memantine HCl, 3,5 dimethyl-1-adamantamine hydrochloride]
